{
  "source": "patent US4594358A",
  "about": "“Analgesic method” (Eli Lilly and Company, priority 1985, dated 1986)",
  "key": {"mouse writhing": {"test_system": "mouse writhing", "assay": "mouse writhing assay (acetic acid induced)", "assay_type": "in vivo, mouse (albino male mice)", "settings": "for ability to potentiate analgesic effect of dextropropoxyphene (in words): mouse, in vivo; for Percent Inhibition of Writhing: Table 4, dextropropoxyphene napsylate 40 mg/kg + saline p.o.", "description": "Writhing, which is characterized by contraction of the abdominal musculature, extension of the hindlegs, and rotation of the trunk, was induced in albino male mice. The extent to which writhing is reduced following administration of a test compound is an indication of the analgesic activity of that compound.\nMice, weighing 18-24 grams, were fasted overnight and given the test compounds by gavage or subcutaneously. Writhing was then induced by the intraperitoneal administration of acetic acid (0.55 to 0.60 percent). Each treatment group consisted of five mice. The total number of writhes for the treatment group was determined during a 10-minute observation period starting five minutes after acetic acid administration."}, "[1]": {"test_system": "monoamine uptake, especially serotonin", "settings": "U.S. Pat. No. 4,313,896; cited from earlier work"}, "[2]": {"settings": "administered alone (U.S. Pat. No. 4,035,511) or with morphine (U.S. Pat. No. 4,083,982); cited from earlier work"}},
  "note": "Structures can show the parent of a compound that is named as a salt. Where two headings read alike, the source gives them in different places.",
  "data": [
    {"compound": "NCCC(Oc1ccc(C(F)(F)F)cc1)c1ccccc1", "note": "(stereo not shown) [Norfluoxetine, 3-(4-trifluoromethylphenoxy)-3-phenylpropylamine]", "values": [
      {"measurement": "ability to potentiate analgesic effect of dextropropoxyphene (in words)", "setting": "mouse writhing", "result": "potentiate the analgesic effect of dextropropoxyphene"},
      {"measurement": "monoamine uptake blockade (in words)", "setting": "[1]", "result": "block monoamine uptake, especially serotonin"}
    ]},
    {"compound": "CNCCC(Oc1ccc(C(F)(F)F)cc1)c1ccccc1", "note": "(stereo not shown) [Fluoxetine Hydrochloride]", "values": [
      {"measurement": "analgesic activity in mouse writhing test", "setting": "mouse writhing; fluoxetine hydrochloride alone, doses up to 160 mg/kg, 30-180 minutes before writhing was induced", "result": "devoid of analgesic activity"}
    ]},
    {"compound": "CNCCC(Oc1ccc(C(F)(F)F)cc1)c1ccccc1", "note": "(stereo not shown) [Fluoxetine, 3-(4-trifluoromethylphenoxy)-N-methyl-3-phenylpropylamine]", "values": [
      {"measurement": "ability to potentiate analgesic effect of dextropropoxyphene (in words)", "setting": "mouse writhing", "result": "potentiate the analgesic effect of dextropropoxyphene"},
      {"measurement": "analgesic properties (in words)", "setting": "[2]", "result": "possess analgesic properties"}
    ]},
    {"compound": "CCC(=O)O[C@](Cc1ccccc1)(c1ccccc1)[C@H](C)CN(C)C", "note": "[Dextropropoxyphene Napsylate]", "values": [
      {"measurement": "ED50", "setting": "mouse writhing; Mus musculus, po, 0.5 h, Table 3, saline pretreatment p.o. three hours prior, dextropropoxyphene napsylate p.o. 30 minutes prior to assessment, read-out: Inhibition of Mouse Writhing ED50", "result": 44.2, "unit": "mg/kg"},
      {"measurement": "ED50", "setting": "mouse writhing; Mus musculus, po, 1 h, read-out: Inhibition of Mouse Writhing ED50", "result": 49.3, "unit": "mg/kg"},
      {"measurement": "inhibition at 10 mg/kg", "setting": "mouse writhing; Mus musculus, po, 1 h, read-out: Percent Inhibition of Mouse Writhing", "result": 0, "unit": "%"},
      {"measurement": "ED50", "setting": "mouse writhing; Mus musculus, sc, 0.5 h, read-out: Induced Inhibition of Mouse Writhing ED50", "result": 9.95, "unit": "mg/kg"},
      {"measurement": "Percent Inhibition of Writhing", "setting": "mouse writhing; 30 minutes after administration", "result": 40, "unit": "%"},
      {"measurement": "Percent Inhibition of Writhing", "setting": "mouse writhing; 60 minutes after administration", "result": 6, "unit": "%"},
      {"measurement": "Percent Inhibition of Writhing", "setting": "mouse writhing; 70 minutes after administration", "result": 10, "unit": "%"},
      {"measurement": "Percent Inhibition of Writhing", "setting": "mouse writhing; 120 minutes after administration", "result": 28, "unit": "%"},
      {"measurement": "Percent Inhibition of Writhing", "setting": "mouse writhing; 180 minutes after administration", "result": 5, "unit": "%"},
      {"measurement": "inhibition of mouse writhing (in words)", "setting": "mouse writhing; dextropropoxyphene napsylate 10 mg/kg p.o. alone, 60 minutes prior to assessment", "result": "no inhibition of the writhing"},
      {"measurement": "ED50 of dextropropoxyphene napsylate alone relative to that with fluoxetine hydrochloride", "setting": "mouse writhing; s.c., 30 minutes, 20 mg/kg fluoxetine hydrochloride s.c. concomitantly", "result": "twice the amount needed"}
    ]}
  ]
}
